Test results reported in paper PMC12434308 (Nature chemical biology, 2021).

Legend:
SARS-CoV-2 RBD [1] = target: T1, SARS-CoV-2 RBD (Severe acute respiratory syndrome coronavirus 2, UniProt P0DTC2)
SARS-CoV-2 S protein = SARS-CoV-2 S protein (Severe acute respiratory syndrome coronavirus 2, UniProt P0DTC2)
SARS-CoV-2 RBD [2] = target: T1, SARS-CoV-2 RBD; remark: listed apart in the source
SARS-CoV-2 S1 protein = details: model sialylated species; cited from earlier work
ACE2+ HEK293 cells [3] = test: fluorescent SARS-CoV-2 RBD trimer binding by flow cytometry; format: cell-based
control lentivirus = format: cell-based
[4] = test system: SARS-CoV-2 pseudotyped lentivirus; format: cell-based
ACE2+ HEK293 cells [5] = test: SNA and PNA lectin staining by flow cytometry; format: cell-based; details: 3 d treatment, 300 μM
Vero-E6 cells = format: cell-based
ACE2 = test: anti-ACE2 antibody staining by flow cytometry; format: cell-based, human; details: ACE2+ HEK293 cells, 3FNeu5Ac treatment
[6] = test system: ferret lung tissue sections
RBD = details: read-out: Kd for the RBD; glycan immobilized, average MW 15,700 Da; cited from earlier work

## α-Neu5Ac-(2→3)-β-D-Gal-(1→3)-β-D-GalNAc-(1→4)-[α-Neu5Ac-(2→8)-α-Neu5Ac-(2→3)]-β-D-Gal-(1→4)-β-D-Glc-ceramide [GT1b]
SARS-CoV-2 RBD [1]
  ganglioside ions released from RBD complexes (nanodisc): no signals

## α-Gal-Lewis X [glycan 50]
SARS-CoV-2 S protein
  relative CaR-ESI-MS response of ligand released from S protein: enhanced

## Galα(1-3)[Fucα(1-2)]Galβ(1-4)[Fucα(1-3)]Glc [glycan 87]
SARS-CoV-2 RBD [2]
  ligand released from RBD in presence of excess MeαNeu5Ac: most abundant ligand released

## α-D-Neu5Ac-(2→3)-β-D-Gal-(1→3)-β-D-GalNAc-(1→4)-[α-D-Neu5Ac-(2→3)]-β-D-Gal-(1→4)-β-D-Glc-ceramide [GD1a]
SARS-CoV-2 RBD [1]
  ganglioside ions released from RBD complexes (nanodisc): no signals

## CC(=O)N[C@H]1[C@H]([C@H](O)[C@H](O)CO)O[C@@](O[C@H]2[C@@H](O)[C@@H](CO)O[C@@H](O[C@H]3[C@H](O)[C@@H](O)C(O)O[C@@H]3CO)[C@@H]2O)(C(=O)O)C[C@@H]1O (some centres unmarked) [3′-sialyllactose]
SARS-CoV-2 S1 protein
  Kd: millimolar

## β-D-GalNAc-(1→4)-[α-D-Neu5Ac-(2→8)-α-D-Neu5Ac-(2→3)]-β-D-Gal-(1→4)-β-D-Glc-ceramide [GD2]
SARS-CoV-2 RBD [1]
  ganglioside ions released from RBD complexes (nanodisc): no signals

## CCCCCCCCC(=O)N[C@H](CN1CCCC1)[C@H](O)c1ccc2c(c1)OCCO2 [GENZ-123346]
ACE2+ HEK293 cells [3]; 5 μM, 48 h
  SARS-CoV-2 RBD binding to glycolipid-depleted cells: significant decreases
Control lentivirus
  infection of control lentivirus: did not show differences
[4]
  pseudotyped viral infection of glycolipid-depleted cells: significant decreases
  pseudoviral entry: failed to elicit an effect

## CC(=O)N[C@H]1[C@H]([C@H](O)[C@H](O)CO)O[C@](O)(C(=O)O)C(F)[C@@H]1O (some centres unmarked) [3FNeu5Ac]
ACE2+ HEK293 cells [3]; 300 μM, 72 h
  RBD binding to treated cells: consistently decreased
ACE2+ HEK293 cells [5]
  Sia on the cell surface (SNA and PNA staining): substantially decreased
Vero-E6 cells
  RBD binding to treated Vero-E6 cells: decrease in RBD binding
Control lentivirus
  viral entry of control lentivirus: no differences were observed
[4]
  decrease in pseudotyped lentivirus infectivity: 30–40%
ACE2
  ACE2 levels after ST inhibition: did not alter

## α-D-Neu5Ac-(2→3)-β-D-Gal-(1→4)-β-D-Glc-ceramide [GM3]
SARS-CoV-2 RBD [1]
  ganglioside ions released from RBD complexes (nanodisc): measured

## neuraminidase from Vibrio cholerae
Vero-E6 cells
  decrease of SARS-CoV-2 RBD binding: ~80%
[6]
  decrease of SARS-CoV-2 RBD binding: ~80%

## heparin
RBD
  Kd: 1000 nM

## β-D-GalNAc-(1→4)-[α-D-Neu5Ac-(2→3)]-β-D-Gal-(1→4)-β-D-Glc-ceramide [GM2]
SARS-CoV-2 RBD [1]
  ganglioside ions released from RBD complexes (nanodisc): measured

## COC1(C(=O)O)CC(O)C(NC(C)=O)C(C(O)C(O)CO)O1 (stereo not drawn) [MeαNeu5Ac, methyl α-sialoside]
SARS-CoV-2 RBD [2]
  relative abundance of released 69 on addition of competitor: qualitatively similar results as 41

## β-D-Gal-(1→3)-β-D-GalNAc-(1→4)-[α-D-Neu5Ac-(2→3)]-β-D-Gal-(1→4)-β-D-Glc-ceramide [GM1]
SARS-CoV-2 RBD [1]
  ganglioside ions released from RBD complexes (nanodisc): measured
